Data as given in ChEMBL document CHEMBL3885881, “DrugMatrix”.

Species on record: Rattus norvegicus
Experiment: DrugMatrix - Regimen: Daily Repeat
Assay type: toxicity, organism-based, Sprague-Dawley
Set-up: regimen Daily Repeat, gender Male, age 6-8 weeks
Settings: in vivo, po, route oral GAVAGE, vehicle .5 % CMC; for ABSOLUTE BASOPHIL / BASOPHIL / EOSINOPHIL / ERYTHROCYTE COUNT / HEMATOCRIT / HEMOGLOBIN / LEUKOCYTE COUNT / LYMPHOCYTE / MEAN CORPUSCULAR HEMOGLOBIN / MEAN CORPUSCULAR HEMOGLOBIN CONCENTRATION / MEAN CORPUSCULAR VOLUME / MONOCYTE / NEUTROPHIL / PLATELET COUNT: tissue Blood; for ALANINE AMINOTRANSFERASE / ALKALINE PHOSPHATASE / ASPARTATE AMINOTRANSFERASE / BLOOD UREA NITROGEN / CHLORIDE / CHOLESTEROL / CREATINE PHOSPHOKINASE / CREATININE / GLUCOSE / PHOSPHORUS / POTASSIUM / SODIUM / TOTAL BILIRUBIN / TOTAL PROTEIN: tissue Plasma
[1] = 0 mg/kg, 72 h, dose level Control, time 3 day
[2] = 0 mg/kg, 120 h, dose level Control, time 5 day
[3] = 20 mg/kg, 72 h, dose level Low, time 3 day
[4] = 20 mg/kg, 120 h, dose level Low, time 5 day
[5] = 89 mg/kg, 72 h, dose level High, time 3 day
[6] = 89 mg/kg, 120 h, dose level High, time 5 day

Structure (SMILES): CC(C(=O)O)c1ccc2oc(-c3ccc(Cl)cc3)nc2c1 (configuration not stated) [BENOXAPROFEN]
- ABSOLUTE BASOPHIL [1]: 16.7 cells/µL
- BASOPHIL [1]: 0.17%
- EOSINOPHIL [1]: 0.62%
- ERYTHROCYTE COUNT [1]: 6.55 x10E6/uL
- HEMATOCRIT [1]: 42%
- HEMOGLOBIN [1]: 13.48 G/DL
- LEUKOCYTE COUNT [1]: 8.79 x10E3/uL
- LYMPHOCYTE [1]: 76.98%
- MEAN CORPUSCULAR HEMOGLOBIN [1]: 20.57 pg
- MEAN CORPUSCULAR HEMOGLOBIN CONCENTRATION [1]: 32.08 G/DL
- MEAN CORPUSCULAR VOLUME [1]: 64.1 fL
- MONOCYTE [1]: 2.12%
- NEUTROPHIL [1]: 19%
- PLATELET COUNT [1]: 1432.17 x10E3/uL
- ALANINE AMINOTRANSFERASE [1]: 42.83 u/L
- ALKALINE PHOSPHATASE [1]: 328.5 u/L
- ASPARTATE AMINOTRANSFERASE [1]: 78.33 u/L
- BLOOD UREA NITROGEN [1]: 14.5 mg/dL
- CHLORIDE [1]: 104.5 MEQ/L
- CHOLESTEROL [1]: 78.67 mg/dL
- CREATINE PHOSPHOKINASE [1]: 282.33 u/L
- CREATININE [1]: 0.25 mg/dL
- GLUCOSE [1]: 173.67 mg/dL
- PHOSPHORUS [1]: 12.83 mg/dL
- POTASSIUM [1]: 6.7 MEQ/L
- SODIUM [1]: 145.83 MEQ/L
- TOTAL BILIRUBIN [1]: 0.4 mg/dL
- TOTAL PROTEIN [1]: 5.93 G/DL
- ABSOLUTE BASOPHIL [2]: 28 cells/µL
- BASOPHIL [2]: 0.26%
- EOSINOPHIL [2]: 0.44%
- ERYTHROCYTE COUNT [2]: 6.99 x10E6/uL
- HEMATOCRIT [2]: 45.12%
- HEMOGLOBIN [2]: 14.26 G/DL
- LEUKOCYTE COUNT [2]: 9.42 x10E3/uL
- LYMPHOCYTE [2]: 79.92%
- MEAN CORPUSCULAR HEMOGLOBIN [2]: 20.44 pg
- MEAN CORPUSCULAR HEMOGLOBIN CONCENTRATION [2]: 31.62 G/DL
- MEAN CORPUSCULAR VOLUME [2]: 64.6 fL
- MONOCYTE [2]: 2.2%
- NEUTROPHIL [2]: 16.14%
- PLATELET COUNT [2]: 1062.2 x10E3/uL
- ALANINE AMINOTRANSFERASE [2]: 44 u/L
- ALKALINE PHOSPHATASE [2]: 342.6 u/L
- ASPARTATE AMINOTRANSFERASE [2]: 74.17 u/L
- BLOOD UREA NITROGEN [2]: 13 mg/dL
- CHLORIDE [2]: 103 MEQ/L
- CHOLESTEROL [2]: 72.83 mg/dL
- CREATINE PHOSPHOKINASE [2]: 184.67 u/L
- CREATININE [2]: 0.47 mg/dL
- GLUCOSE [2]: 168.17 mg/dL
- PHOSPHORUS [2]: 12.27 mg/dL
- POTASSIUM [2]: 6.98 MEQ/L
- SODIUM [2]: 147 MEQ/L
- TOTAL BILIRUBIN [2]: 0.65 mg/dL
- TOTAL PROTEIN [2]: 6.23 G/DL
- ABSOLUTE BASOPHIL [3]: 20 cells/µL
- BASOPHIL [3]: 0.23%
- EOSINOPHIL [3]: 0.43%
- ERYTHROCYTE COUNT [3]: 6.67 x10E6/uL
- HEMATOCRIT [3]: 42.8%
- HEMOGLOBIN [3]: 13.83 G/DL
- LEUKOCYTE COUNT [3]: 10.28 x10E3/uL
- LYMPHOCYTE [3]: 78.07%
- MEAN CORPUSCULAR HEMOGLOBIN [3]: 20.73 pg
- MEAN CORPUSCULAR HEMOGLOBIN CONCENTRATION [3]: 32.33 G/DL
- MEAN CORPUSCULAR VOLUME [3]: 64.2 fL
- MONOCYTE [3]: 2.7%
- NEUTROPHIL [3]: 16.57%
- PLATELET COUNT [3]: 1248 x10E3/uL
- ALANINE AMINOTRANSFERASE [3]: 44.67 u/L
- ALKALINE PHOSPHATASE [3]: 316.67 u/L
- ASPARTATE AMINOTRANSFERASE [3]: 75.67 u/L
- BLOOD UREA NITROGEN [3]: 13.33 mg/dL
- CHLORIDE [3]: 104.33 MEQ/L
- CHOLESTEROL [3]: 64.33 mg/dL
- CREATINE PHOSPHOKINASE [3]: 179 u/L
- CREATININE [3]: 0.33 mg/dL
- GLUCOSE [3]: 176.67 mg/dL
- PHOSPHORUS [3]: 12.2 mg/dL
- POTASSIUM [3]: 6.37 MEQ/L
- SODIUM [3]: 146.33 MEQ/L
- TOTAL BILIRUBIN [3]: 0.37 mg/dL
- TOTAL PROTEIN [3]: 5.7 G/DL
- ABSOLUTE BASOPHIL [4]: 56.7 cells/µL
- BASOPHIL [4]: 0.6%
- EOSINOPHIL [4]: 0.53%
- ERYTHROCYTE COUNT [4]: 7.47 x10E6/uL
- HEMATOCRIT [4]: 48.6%
- HEMOGLOBIN [4]: 15.37 G/DL
- LEUKOCYTE COUNT [4]: 8.81 x10E3/uL
- LYMPHOCYTE [4]: 79.3%
- MEAN CORPUSCULAR HEMOGLOBIN [4]: 20.53 pg
- MEAN CORPUSCULAR HEMOGLOBIN CONCENTRATION [4]: 31.57 G/DL
- MEAN CORPUSCULAR VOLUME [4]: 65.03 fL
- MONOCYTE [4]: 2.53%
- NEUTROPHIL [4]: 15.73%
- PLATELET COUNT [4]: 1097 x10E3/uL
- ALKALINE PHOSPHATASE [4]: 357.67 u/L
- ASPARTATE AMINOTRANSFERASE [4]: 65 u/L
- BLOOD UREA NITROGEN [4]: 13.33 mg/dL
- CHLORIDE [4]: 104.67 MEQ/L
- CHOLESTEROL [4]: 59.33 mg/dL
- CREATINE PHOSPHOKINASE [4]: 158.33 u/L
- CREATININE [4]: 0.43 mg/dL
- GLUCOSE [4]: 175.33 mg/dL
- PHOSPHORUS [4]: 12.03 mg/dL
- POTASSIUM [4]: 7.37 MEQ/L
- SODIUM [4]: 150.67 MEQ/L
- TOTAL BILIRUBIN [4]: 0.33 mg/dL
- TOTAL PROTEIN [4]: 6.43 G/DL
- ABSOLUTE BASOPHIL [5]: 46.7 cells/µL
- BASOPHIL [5]: 0.87%
- EOSINOPHIL [5]: 0.43%
- ERYTHROCYTE COUNT [5]: 5.74 x10E6/uL
- HEMATOCRIT [5]: 35.5%
- HEMOGLOBIN [5]: 11.63 G/DL
- LEUKOCYTE COUNT [5]: 4.56 x10E3/uL
- LYMPHOCYTE [5]: 64.07%
- MEAN CORPUSCULAR HEMOGLOBIN [5]: 20.27 pg
- MEAN CORPUSCULAR HEMOGLOBIN CONCENTRATION [5]: 32.8 G/DL
- MEAN CORPUSCULAR VOLUME [5]: 61.93 fL
- MONOCYTE [5]: 4.3%
- NEUTROPHIL [5]: 29.23%
- PLATELET COUNT [5]: 1116 x10E3/uL
- ALANINE AMINOTRANSFERASE [5]: 30.67 u/L
- ALKALINE PHOSPHATASE [5]: 216.33 u/L
- ASPARTATE AMINOTRANSFERASE [5]: 71 u/L
- BLOOD UREA NITROGEN [5]: 13 mg/dL
- CHLORIDE [5]: 105 MEQ/L
- CHOLESTEROL [5]: 81 mg/dL
- CREATINE PHOSPHOKINASE [5]: 293 u/L
- CREATININE [5]: 0.37 mg/dL
- GLUCOSE [5]: 179 mg/dL
- PHOSPHORUS [5]: 11.33 mg/dL
- POTASSIUM [5]: 6.47 MEQ/L
- SODIUM [5]: 142.33 MEQ/L
- TOTAL BILIRUBIN [5]: 0.33 mg/dL
- TOTAL PROTEIN [5]: 4.93 G/DL
- ABSOLUTE BASOPHIL [6]: 80 cells/µL
- BASOPHIL [6]: 0.75%
- EOSINOPHIL [6]: 0.5%
- ERYTHROCYTE COUNT [6]: 3.39 x10E6/uL
- HEMATOCRIT [6]: 21.15%
- HEMOGLOBIN [6]: 6.75 G/DL
- LEUKOCYTE COUNT [6]: 9.48 x10E3/uL
- LYMPHOCYTE [6]: 62%
- MEAN CORPUSCULAR HEMOGLOBIN [6]: 20.05 pg
- MEAN CORPUSCULAR HEMOGLOBIN CONCENTRATION [6]: 32.38 G/DL
- MEAN CORPUSCULAR VOLUME [6]: 61.98 fL
- MONOCYTE [6]: 3.5%
- NEUTROPHIL [6]: 36%
- PLATELET COUNT [6]: 1019.25 x10E3/uL
- ALANINE AMINOTRANSFERASE [6]: 205.75 u/L
- ALKALINE PHOSPHATASE [6]: 329.75 u/L
- ASPARTATE AMINOTRANSFERASE [6]: 292.5 u/L
- BLOOD UREA NITROGEN [6]: 38.75 mg/dL
- CHLORIDE [6]: 103.5 MEQ/L
- CHOLESTEROL [6]: 101 mg/dL
- CREATINE PHOSPHOKINASE [6]: 255.75 u/L
- CREATININE [6]: 0.33 mg/dL
- GLUCOSE [6]: 163.25 mg/dL
- PHOSPHORUS [6]: 10.22 mg/dL
- POTASSIUM [6]: 5.38 MEQ/L
- SODIUM [6]: 143.25 MEQ/L
- TOTAL BILIRUBIN [6]: 0.42 mg/dL
- TOTAL PROTEIN [6]: 4.65 G/DL
